Turning to `COc1ccc(Cl)c(CC(Nc2nc3ccc(Cl)cc3cc2C(=O)O)C(=O)O)c1` (stereo not drawn), the melting point was in the range of 180 to 185 °C.

`O=C1Nc2sccc2C(=O)N2CC[C@@H]12` had a melting point of 272 to 274 °C.

`O=S(=O)(c1ccccc1)C1CCC(COc2ccc(F)cc2)O1` (racemic) showed a melting point of 102 to 104 °C.

Regarding `COC(=O)c1cccnc1C(=O)c1ccc(F)cc1`, the melting point lay in the range of 95 to 96.5 °C.

For `CCCCNC(=O)c1ccc2c(c1)[C@H]1OCCN(CCC)[C@@H]1CC2` (relative stereo), the melting point lay in the range of 128 to 131 °C.

Take `CC1CCC2(C)C(=CCC3C4CCC(=O)C4(C)CCC32)C1` (stereo not drawn): the melting point lay in the range of 148 to 150 °C.

The molecule `CCCN(CCC)C(=O)CNc1nc(-c2ccccc2)nc(C(F)(F)F)c1Cl` yielded a melting point of 115 to 117 °C.

For `N#CC=C1CCN(c2ccc(N3C[C@H](CNC(=O)CI)OC3=O)cc2F)CC1`, the melting point was in the range of 178 to 180 °C.

For `CN1C(=O)SC(=Cc2ccc([N+](=O)[O-])cc2)C1=O`, the melting point lay within 233 to 234 °C.

On to `COC(=O)c1ccc(F)c2c1CC(N(CCCc1c[nH]c3ccc(F)cc13)C1CCC1)CO2` (stereo not drawn), for which the melting point stood at 110 °C.

In turn, `CCOC(=O)c1c(OC(C)=O)c2ccccc2c2nc3ccccc3nc12` had a melting point of 195 to 196 °C.

The molecule `Cn1c2ccc(Cl)cc2c2cc(C(=O)O)sc21` had a melting point of 259 to 262 °C.

Turning to `C/C(=C\c1ccc(OC(C)C)cc1Oc1ncc(C(F)(F)F)cc1Cl)C(=O)NS(=O)(=O)NCCc1ccccn1`, the melting point was in the range of 121 to 123 °C.

The molecule `CS(=O)(=O)Nc1ccc(C=C2CCOC2=O)cc1Oc1ccc(F)cc1F` returned a melting point of 179 to 180 °C.

The molecule `CCCc1cc([N+](=O)[O-])cc(C=O)c1O` showed a melting point of 69.5 to 70 °C.

Take `NNc1nc(F)c(CC(F)(F)F)cc1Cl`: the melting point is 104 to 106 °C.

As to `Cc1cc(O)c(Cc2ccc(C(C)C)cc2)c(C)c1N(Cc1ccccc1)C(=O)CC(C)(C)C`, the melting point was in the range of 167 to 168 °C.

In the case of `CCCNC(=O)C1(CCCCN2CCC(N3Cc4ccccc4C3=O)CC2)c2ccccc2-c2cccnc21` (stereo not drawn), the melting point lay within 52 to 54 °C.

`COc1ccc(-c2cc(=O)n(Cc3ccccn3)nc2-c2ccc(OC)cc2)cc1`: the melting point was 116 to 117 °C.

The molecule `CC(Cc1ccc(-c2ccc(Cl)cc2)cc1Cl)NC(=O)c1cn(C)nc1C(F)F` (stereo not drawn) gave a melting point of 96 to 98 °C.

Consider `Cc1csc2ccc3[nH]c4c(c3c12)CN(C(=O)OCCCN(C)C)CC4`, for which the melting point is 184 °C.

`O=C(NCc1ccc2c(Br)c(OC(Cc3ccccc3)C(=O)O)ccc2c1)c1ccc(Oc2cc(Cl)cc(Cl)c2)o1` (stereo not drawn) gave a melting point of 86 to 100 °C.

In turn, `N=C(Cc1ccccc1-n1cnc2cnc3ccc(-c4ccccc4)cc3c21)NO` yielded a melting point of 253 to 254 °C.

`O=CNCC1c2cccc3c2N(CC3)c2ccccc2N1C=O` (stereo not drawn) registered a melting point of 201 to 202 °C.

With `Cc1ccc(-c2ccc(S(C)(=O)=O)cc2)n1-c1ccc(-c2ccco2)c(Cl)c1`, the melting point was in the range of 127 to 131 °C.

`CC(=O)OC1CCC2(C)C(=CC(=O)C3C2CCC2(C)C(C(C)CCCC(C)(C)C)CCC32)C1` (stereo not drawn) registered a melting point of 183 to 186 °C.

Turning to `COc1cc(C(=O)O)ccc1Cc1cn(C)c2ccc(N(C(N)=O)C3CCCC3)cc12`, the melting point was in the range of 203 to 206 °C.

Consider `Cc1ccc(CC(N)=NO)cc1C`, for which the melting point lay in the range of 59 to 60 °C.

As for `O=C(NCCO)c1cccc(-c2cccc3cc(OCc4cccc(C(F)(F)F)c4)nn23)c1`, the melting point was 118 to 119 °C.

The molecule `Cc1cccc(Sc2cncc3sc(C(N)=O)cc23)c1` had a melting point of 171 to 173 °C.

`Cc1ccc(C(=O)CCCCC(=O)O)cc1` came in with a melting point of 147 to 148 °C.

With `CCCc1nc(OC)c(NC(=O)N2CCN(c3cc(C)cc(C)c3)CC2)cc1C(=O)NC(C)C(=O)Nc1cc(CO)cc(Nc2c3ccccc3nc3ccccc23)c1` (stereo not drawn), the melting point is 195 to 197 °C.

For the molecule `CC(=O)n1cc(O)c2cc(Cl)ccc21`, the melting point was in the range of 186 to 188 °C.

As for `COc1cccc(N(C)C(=O)Oc2ccc(Cl)c(C(C)(C)C)c2)n1`, the melting point was 54 to 56 °C.

Take `O=C(NCc1ccc(Cl)cc1)c1ccc2sc(CN3CCOCC3)cc2c1O`: the melting point worked out at 200 °C.

On to `CCCCc1nn(-c2ccc(C(F)(F)F)cn2)cc1CCCO`, for which the melting point fell in the range of 93 to 94 °C.

As for `C=C(C)CN1CCN(CC(=O)N2c3ccccc3C(=O)Nc3cccnc32)CC1`, the melting point was 205 to 207 °C.

Regarding `CCCCOc1ccc(C#CC2(O)CN3CCC2CC3)cc1` (single isomer, unassigned; (+)), the melting point is 115 to 116 °C.

In turn, `COc1cc(C=CC(=O)Nc2cnc3cc(C)c(C)cc3c2-c2ccccc2Cl)cc(OC)c1O` displayed a melting point of 278 to 280 °C.

`Cc1c(-c2ccc3c(c2)C2(CCCCC2)C(=O)N3)sc2ccc(Cl)cc12` returned a melting point of 256 to 258 °C.

Take `COc1ccc2c(c1)CCc1c(C(F)F)nn(-c3ccc(S(N)(=O)=O)cc3)c1-2`: the melting point lay within 256 to 257 °C.

`Cc1cccc(OCC(=O)N[C@@H](Cc2ccccc2)C(=O)CSCc2ccco2)c1` had a melting point of 76 to 78 °C.

In turn, `O=S(=O)(c1ccccc1)n1cc(CCOC2OC(CO)CC(O)C2O)c2ccccc21` (stereo not drawn) registered a melting point of 64 to 65 °C.
